The values below come from ChEMBL document CHEMBL1155973, “Disubstituted pyrimidines as Lck inhibitors” (Bioorg Med Chem Lett, 2009).

The target in experiment [1] is T1, Tyrosine-protein kinase Lck (Homo sapiens, UniProt P06239). The experiment in a line: Inhibition of Lck.
Experiment [2] has as its system Jurkat. As to the kind of experiment: Inhibition of antigen-stimulated IL-2 production in human Jurkat cells expressing MART-1 antigen specific TCR. Format: functional, cell-based.
The target in experiment [3] is T1, Tyrosine-protein kinase Lck. The experiment in a line: Inhibition of Lck kinase activity.

T1 sequence (P06239 whole entry): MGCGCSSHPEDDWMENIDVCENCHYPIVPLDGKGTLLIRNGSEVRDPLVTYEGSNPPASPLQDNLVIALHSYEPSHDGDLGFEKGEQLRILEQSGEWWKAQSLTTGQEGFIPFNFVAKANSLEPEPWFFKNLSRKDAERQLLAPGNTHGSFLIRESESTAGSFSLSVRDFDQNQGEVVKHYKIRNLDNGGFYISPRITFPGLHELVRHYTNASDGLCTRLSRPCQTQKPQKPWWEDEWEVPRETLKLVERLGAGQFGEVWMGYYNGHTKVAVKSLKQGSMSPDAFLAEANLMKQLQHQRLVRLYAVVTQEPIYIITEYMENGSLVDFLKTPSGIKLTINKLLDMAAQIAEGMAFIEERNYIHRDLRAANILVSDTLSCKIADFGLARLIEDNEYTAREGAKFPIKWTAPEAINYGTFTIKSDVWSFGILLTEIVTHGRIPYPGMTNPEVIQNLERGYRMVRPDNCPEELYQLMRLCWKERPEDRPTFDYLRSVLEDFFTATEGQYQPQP

On to `CCN1CCN(c2ccc3c(c2)ncn3-c2ccnc(N[C@@H](C)c3ccccc3)n2)C1=O`, for which the half-inhibitory concentration (IC50) was 1 nM in experiment [1] and 167 nM in experiment [2] (Homo sapiens, Jurkat).
As to `C[C@@H](Nc1nccc(-n2cnc3ccccc32)n1)c1ccccc1`, the midpoint of inhibition in experiment [1], the IC50, lay at 1770 nM. This counts as single-digit micromolar.
Consider `CC(Nc1nccc(-n2cnc3ccccc32)n1)C1CN(C(=O)Nc2cccc3ccccc23)CCN1S(C)(=O)=O` (centres undefined), for which the IC50 in experiment [1] was 11.8 nM; in experiment [2] (Homo sapiens, Jurkat), > 1000 nM.
For `CN1CCN(C(=O)c2ccc3ccccc3c2)CC1CNc1nccc(-n2cnc3ccccc32)n1` (centres undefined), 10 nM corresponded to half-maximal inhibition in experiment [1] (IC50).
As to `CC(Nc1nccc(-n2cnc3ccccc32)n1)C1CCCN(C(=O)NC2CCCCC2)C1` (centres undefined), inhibition in experiment [1] was half-maximal at 1260 nM (IC50).
In the case of `Cc1cc2ncn(-c3ccnc(N[C@@H](C)c4ccccc4)n3)c2cc1C`, the IC50 in experiment [3] and in experiment [1] was 2070 nM each time.
As to `CC(Nc1nccc(-n2cnc3ccccc32)n1)C1CCCN(C(=O)Cc2ccccc2)C1` (centres undefined), the half-maximal inhibitory concentration (IC50) in experiment [1] was 800 nM.
As to `C[C@H](Nc1nccc(-n2cnc3cc(-c4ccnc(N)n4)ccc32)n1)[C@@H]1CN(C(=O)Nc2cccc3ccccc23)CCN1C`, the IC50 in experiment [1] turned out to be 0.07 nM; in experiment [2] (Homo sapiens, Jurkat) it was 16 nM.
For `C[C@H](Nc1nccc(-n2cnc3cc(-c4ccncc4)ccc32)n1)c1ccccc1`, the IC50 is 3 nM in experiment [1] and 98 nM in experiment [2] (Homo sapiens, Jurkat).
The like results for `CC(=O)N1CCN(C(=O)Nc2cccc3ccccc23)C[C@H]1[C@H](C)Nc1nccc(-n2cnc3ccccc32)n1` were, in that order, 115 nM and > 10000 nM.
For the compound `CC(Nc1nccc(-n2cnc3ccccc32)n1)C1CN(C(=O)Nc2cccc3ccccc23)CCN1C(=O)OCc1ccccc1` (centres undefined), the IC50 was > 1000 nM in experiment [1] and > 10000 nM in experiment [2] (Homo sapiens, Jurkat).
Regarding `O=C(c1ccc2ccccc2c1)N1CCCC(CNc2nccc(-n3cnc4ccccc43)n2)C1` (centres undefined), in experiment [1], 106 nM corresponded to half-maximal inhibition (IC50). This lies in the sub-micromolar range.
On to `CC(Nc1nccc(-n2cnc3ccccc32)n1)C1CN(Cc2ccccc2)CCN1C` (centres undefined), for which the IC50 in experiment [1] was 501 nM; in experiment [2] (Homo sapiens, Jurkat) it was > 10000 nM.
In experiment [1], `O=C(Nc1cccc2ccccc12)N1CCNC(CNc2nccc(-n3cnc4ccccc43)n2)C1` (centres undefined) registered a 50% inhibitory concentration (IC50) of 110 nM.
On the same count and under the same terms, the same measure for `O=C(OCc1ccccc1)N1CCCC(CNc2nccc(-n3cnc4ccccc43)n2)C1` (centres undefined): 650 nM.
Turning to `CC(C)CN1CCN(C(=O)Nc2cccc3ccccc23)C[C@H]1[C@H](C)Nc1nccc(-n2cnc3ccccc32)n1`, the half-maximal inhibitory concentration (IC50) is 0.2 nM in experiment [1] and 538 nM in experiment [2] (Homo sapiens, Jurkat).
Turning to `CC(Nc1nccc(-n2cnc3ccccc32)n1)C1CN(C(=O)Nc2cccc3ccccc23)CCN1C` (single isomer, unassigned; diastereomer 2), the 50% inhibitory concentration (IC50) in experiment [1] is 17.4 nM; in experiment [2] (jurkat), > 1000 nM.
The compound `CC(Nc1nccc(-n2cnc3ccccc32)n1)C1CCCN(C(=O)Nc2ccccc2)C1` (centres undefined) came in with an IC50 in experiment [1] of 11 nM.
On to `C[C@H](Nc1nccc(-n2cnc3ccccc32)n1)[C@@H]1CN(C(=O)Nc2cccc3ccccc23)CCN1C`, for which the 50% inhibitory concentration (IC50) in experiment [1] was 0.06 nM; in experiment [2] (Homo sapiens, Jurkat), 111 nM.
As for `CC(Nc1nccc(-n2cnc3ccccc32)n1)C1CNCCN1C` (centres undefined), the IC50 in experiment [1] is > 1000 nM; in experiment [2] (Homo sapiens, Jurkat) it was > 10000 nM.
As to `CCCCCCN1CCN(C(=O)Nc2cccc3ccccc23)C[C@H]1[C@H](C)Nc1nccc(-n2cnc3ccccc32)n1`, the IC50 was 1.8 nM in experiment [1] and > 1000 nM in experiment [2] (Homo sapiens, Jurkat).
With `O=C(OCc1ccccc1)N1CCCCC1CNc1nccc(-n2cnc3ccccc32)n1` (centres undefined), the IC50 in experiment [1] is > 20000 nM.
Take `CC(Nc1nccc(-n2cnc3ccccc32)n1)C1CN(C(=O)Nc2ccc3ccccc3c2)CCN1C` (centres undefined): the concentration for half-maximal inhibition (IC50) was 75.2 nM in experiment [1] and > 1000 nM in experiment [2] (Homo sapiens, Jurkat).
Turning to `C[C@H](Nc1nccc(-n2cnc3ccccc32)n1)[C@@H]1CN(C(=O)Nc2cccc3ccccc23)CCN1c1ccncc1`, the concentration for half-maximal inhibition (IC50) came out at 0.2 nM in experiment [1] and 546 nM in experiment [2] (Homo sapiens, Jurkat).
`Cc1nc2ccccc2n1-c1ccnc(N[C@@H](C)c2ccccc2)n1`: the 50% inhibitory concentration (IC50) in experiment [3] and in experiment [1] was > 20000 nM in each case.
In the case of `CNC(=O)N1CCCC(C(C)Nc2nccc(-n3cnc4ccccc43)n2)C1` (centres undefined), inhibition in experiment [1] was half-maximal at 242 nM (IC50).
The compound `c1ccc(CNc2nccc(-n3cnc4ccccc43)n2)cc1` showed an IC50 in experiment [1] of 827 nM. Against the preceding compound, the IC50 is about 3.4-fold higher.
With `CCN1CCN(C(=O)Nc2cccc3ccccc23)C[C@H]1[C@H](C)Nc1nccc(-n2cnc3ccccc32)n1`, the 50% inhibitory concentration (IC50) turned out to be 0.07 nM in experiment [1] and 154 nM in experiment [2] (Homo sapiens, Jurkat).
`O=C(OCc1ccccc1)N1CCC(CNc2nccc(-n3cnc4ccccc43)n2)CC1`: the concentration for half-maximal inhibition (IC50) in experiment [1] is > 20000 nM.
Regarding `C[C@H](Nc1nccc(-n2cnc3ccccc32)n1)c1cccc([N+](=O)[O-])c1`, in experiment [1], half-maximal inhibition (IC50) was put at 47 nM.
Regarding `CC(Nc1nccc(-n2cnc3ccccc32)n1)C1CCCN(C(=O)Nc2ccc3ccccc3c2)C1` (centres undefined), the IC50 in experiment [1] came out at 40 nM.
As for `O=C(c1ccc2ccccc2c1)N1CCOC(CNc2nccc(-n3cnc4ccccc43)n2)C1` (centres undefined), in experiment [1], the half-inhibitory concentration (IC50) amounted to 203 nM.
With `CC(Nc1nccc(-n2cnc3ccccc32)n1)C1CCCN(C(=O)Oc2ccccc2)C1` (centres undefined), in experiment [1], the midpoint of inhibition, the IC50, lay at 46 nM.
Regarding `O=C(Nc1cccc2ccccc12)N1CCC(CNc2nccc(-n3cnc4ccccc43)n2)C1` (centres undefined), in experiment [1], the IC50 was > 10000 nM.
In the case of `CC(Nc1nccc(-n2cnc3ccccc32)n1)C1CCCN(C(=O)OCc2ccccc2)C1` (stereo in doubt; 12b), in experiment [1], the IC50 turned out to be 2720 nM.
`CC(Nc1nccc(-n2cnc3ccccc32)n1)C1CN(C)CCN1C` (centres undefined): the IC50 in experiment [1] was > 1000 nM; in experiment [2] (Homo sapiens, Jurkat), > 10000 nM.
`C[C@H](Nc1nccc(-n2cnc3cc(-c4ccncc4)ccc32)n1)[C@@H]1CN(C(=O)Nc2cccc3ccccc23)CCN1C`: the IC50 in experiment [1] turned out to be 0.12 nM; in experiment [2] (Homo sapiens, Jurkat) it was 8 nM.
With `C[C@H](Nc1nccc(-n2cnc3ccccc32)n1)C1CCCCC1`, half-maximal inhibition in experiment [1] (IC50) required 243 nM. This counts as sub-micromolar.
Consider `C[C@H](Nc1nccc(-n2cnc3cc(-c4ccnc(N)n4)ccc32)n1)c1ccccc1`, for which the 50% inhibitory concentration (IC50) was 1.5 nM in experiment [1] and 111 nM in experiment [2] (Homo sapiens, Jurkat).
Regarding `CCOC(=O)CN1CCN(C(=O)Nc2cccc3ccccc23)C[C@H]1[C@H](C)Nc1nccc(-n2cnc3ccccc32)n1`, the IC50 was found to be 0.45 nM in experiment [1] and 847 nM in experiment [2] (Homo sapiens, Jurkat).
Consider `Cc1ccc2c(c1)ncn2-c1ccnc(N[C@@H](C)c2ccccc2)n1`, for which the IC50 in experiment [3] and in experiment [1] was 128 nM each time.
In the case of `CCN1CCN(c2ccc3c(c2)ncn3-c2ccnc(N[C@@H](C)[C@@H]3CN(C(=O)Nc4cccc5ccccc45)CCN3C)n2)C1=O`, the 50% inhibitory concentration (IC50) in experiment [1] came to 0.4 nM; in experiment [2] (Homo sapiens, Jurkat) it was 42 nM.
The corresponding values for `CC(Nc1nccc(-n2cnc3ccccc32)n1)C1CN(S(C)(=O)=O)CCN1C` (centres undefined) are 22.5 nM and > 1000 nM.
In the case of `CC(Nc1nccc(-n2cnc3ccccc32)n1)C1CCCN(C(=O)Nc2cccc3ccccc23)C1` (racemic), the midpoint of inhibition in experiment [1], the IC50, lay at 1 nM.
As to `CC(Nc1nccc(-n2cnc3ccccc32)n1)C1CCCN(C(=O)OCc2ccccc2)C1` (stereo in doubt; 12a), half-maximal inhibition in experiment [1] (IC50) required 144 nM.
For the compound `CC(Nc1nccc(-n2cnc3ccccc32)n1)C1CN(C(=O)Nc2cccc3ccccc23)CCN1Cc1ccccc1` (centres undefined), the IC50 in experiment [1] was 2.6 nM; in experiment [2] (Homo sapiens, Jurkat) it was > 1000 nM.
For the compound `CC(Nc1nccc(-n2cnc3ccccc32)n1)C1CN(C(=O)Nc2cccc3ccccc23)CCN1C` (single isomer, unassigned; diastereomer 1), the half-inhibitory concentration (IC50) in experiment [1] stood at 0.25 nM; in experiment [2] (jurkat), 361 nM.
On to `CC(Nc1nccc(-n2cnc3ccccc32)n1)C1CN(C(=O)Nc2cccc3ccccc23)CCN1S(=O)(=O)c1ccccc1` (centres undefined), for which the IC50 was 26.5 nM in experiment [1] and > 10000 nM in experiment [2] (Homo sapiens, Jurkat).
In experiment [1], `C[C@H](Nc1nccc(-n2cnc3ccccc32)n1)c1ccccc1` gave a 50% inhibitory concentration (IC50) of 153 nM.
Regarding `Cc1ccc2ncn(-c3ccnc(N[C@@H](C)c4ccccc4)n3)c2c1`, the IC50 in experiment [3] and in experiment [1] was 58 nM each time.
`C[C@H](Nc1nccc(-n2cnc3ccccc32)n1)[C@H]1CCCN(C(=O)Nc2cccc3ccccc23)C1` gave a half-maximal inhibitory concentration (IC50) in experiment [1] of 0.4 nM.

As a reminder, the IC50 is the concentration that gives 50% inhibition. Lower therefore signals greater potency.
